According to patent US20260258035A1, “FIVE-MEMBERED AND SIX-MEMBERED NITROGEN-CONTAINING COMPOUND, AND INTERMEDIATE, PREPARATION METHOD AND USE THEREOF” (HANGZHOU SYNRX THERAPEUTICS BIOMEDICAL TECHNOLOGY CO., LTD., priority 2022, published 2026):
Like-named read-outs stand apart in the source and are kept apart here.

What was measured:
PARG = PARG (Homo sapiens, UniProt Q86W56); assay: Biochemical assay (PARG, TFMU-ADPr substrate)
HCC1806 = assay: Cell viability assay (CellTiter-Glo); assay type: cell-based, Human; settings: HCC1806, 7 days, CellTiter-Glo, read-out: IC50 (nM) in cell viability assay
[1] = tested on: Human breast squamous carcinoma cells HCC1806; assay: Cell function assay (In-Cell Western, PAR/pADPr after MMS); assay type: cell-based; settings: read-out: IC50 (nM) in cell function assay
Procedure: 2. Cell Function Assay (In-Cell Western)
• 1) Human breast squamous carcinoma cells HCC1806 (ATCC) were seeded to the 384-well plate (Corning, #3764) at 20,000 cells/well, incubated for 24 h in a CO2 (5%) incubator at 37° C. to allow for complete adherence of the cells; • 2) 120 nL compounds or DMSO were added to the 384-well plate by Echo 550 (LABCYTE, #550) (final concentrations of compounds: 30000 nM, 10000 nM, 3000 nM, 1000 nM, 300 nM, 100 nM, 30 nM, 10 nM, 3 nM, 1 nM, 0 nM), and then the cells were incubated for 1 h in a CO2 (5%) incubator at 37° C.; • 3) 40 nL MMS (methyl mesylate, Sigma, #129925)(final concentration: 0.5 mM) was added to the plate by Echo 550, and the cells were treated for 1 h in a CO2 (5%) incubator at 37° C.

[2] = 4 nM PARG, 66.2 uM TFMU-ADPr, 3 min at room temperature
[3] = HCC1806, In-Cell Western, MMS treatment
[4] = HCC1806, compound 1 h then 0.5 mM MMS 1 h, PAR/pADPr antibody, In-Cell Western

PARG, sequence (Q86W56 whole entry): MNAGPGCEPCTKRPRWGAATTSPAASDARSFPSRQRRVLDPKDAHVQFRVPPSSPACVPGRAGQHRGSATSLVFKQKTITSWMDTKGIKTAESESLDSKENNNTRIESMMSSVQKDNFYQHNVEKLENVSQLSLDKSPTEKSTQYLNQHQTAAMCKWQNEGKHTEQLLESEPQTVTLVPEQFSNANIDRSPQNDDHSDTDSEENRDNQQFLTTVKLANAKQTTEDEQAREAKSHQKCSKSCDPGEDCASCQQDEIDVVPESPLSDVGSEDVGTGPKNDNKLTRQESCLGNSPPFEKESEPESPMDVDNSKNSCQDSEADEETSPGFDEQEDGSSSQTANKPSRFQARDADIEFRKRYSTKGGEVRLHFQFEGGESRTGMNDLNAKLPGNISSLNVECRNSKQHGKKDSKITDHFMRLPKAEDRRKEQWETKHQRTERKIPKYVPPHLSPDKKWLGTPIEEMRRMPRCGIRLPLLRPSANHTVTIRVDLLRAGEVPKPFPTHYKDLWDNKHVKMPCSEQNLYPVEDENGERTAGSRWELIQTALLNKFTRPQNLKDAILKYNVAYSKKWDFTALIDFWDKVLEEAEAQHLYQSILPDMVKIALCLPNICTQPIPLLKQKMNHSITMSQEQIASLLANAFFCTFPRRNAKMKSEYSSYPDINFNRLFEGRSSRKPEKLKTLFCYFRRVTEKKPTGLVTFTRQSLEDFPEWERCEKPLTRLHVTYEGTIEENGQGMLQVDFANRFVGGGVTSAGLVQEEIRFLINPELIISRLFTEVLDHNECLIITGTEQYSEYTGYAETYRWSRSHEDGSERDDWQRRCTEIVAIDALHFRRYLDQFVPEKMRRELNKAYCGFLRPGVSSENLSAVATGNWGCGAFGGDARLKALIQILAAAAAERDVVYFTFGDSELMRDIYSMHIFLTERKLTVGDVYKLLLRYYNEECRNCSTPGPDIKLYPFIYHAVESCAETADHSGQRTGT

Compound: CC(C)C(=O)N1CCN(c2cc(S(=O)(=O)NC3(C)COC3)cn3c(-c4nnc(C(F)F)s4)ncc23)CC1 [Example 43, 3-(5-(difluoromethyl)-1,3,4-thiadiazol-2-yl)-8-(4-isobutyrylpiperazin-1-yl)-N-(3-methyloxetan-3-yl)imidazo[1,5-a]pyridine-6-sulfonamide]
- IC50 (PARG; [2]): < 100 nM
- IC50 (PARG; PARG, TFMU-ADPr substrate): 0.96 nM
- IC50 (HCC1806): 283 nM
- IC50 (HCC1806; Homo sapiens, HCC1806, 168 h): < 500 nM
- IC50 [1, 3]: 9.32 nM
- IC50 [1, 4]: < 100 nM

Compound: O=S(=O)(NC1(CF)CC1)c1cc(N2CCC(CO)CC2)c2nnc(-c3nnc(C(F)F)s3)n2c1 [Example 108, 3-(5-(difluoromethyl)-1,3,4-thiadiazol-2-yl)-N-(1-(fluoromethyl)cyclopropyl)-8-(4-(hydroxymethyl)piperidin-1-yl)-[1,2,4]triazolo[4,3-a]pyridine-6-sulfonamide]
- IC50 (PARG; [2]): < 100 nM
- IC50 (PARG; PARG, TFMU-ADPr substrate): 1.5 nM
- IC50 (HCC1806): 520 nM
- IC50 (HCC1806; Homo sapiens, HCC1806, 168 h): 500 to 5000 nM
- IC50 [1, 3]: 22.6 nM
- IC50 [1, 4]: < 100 nM

Compound: CC(C)C(=O)N1CC2(CC=C(c3nc(-c4nnc(C(F)F)s4)n4cc(S(=O)(=O)NC5(C#N)CC5)ccc34)C2)C1 [Example 24, N-(1-cyanocyclopropyl)-3-(5-(difluoromethyl)-1,3,4-thiadiazol-2-yl)-1-(2-isobutyryl-2-azaspiro[3.4]oct-6-en-6-yl)imidazo[1,5-a]pyridine-6-sulfonamide]
- IC50 (PARG; [2]): < 100 nM
- IC50 (PARG; PARG, TFMU-ADPr substrate): 2.46 nM
- IC50 (HCC1806): 500 nM
- IC50 (HCC1806; Homo sapiens, HCC1806, 168 h): < 500 nM
- IC50 [1, 3]: 52.6 nM
- IC50 [1, 4]: < 100 nM

Compound: CC1(NS(=O)(=O)c2cc(N3CCC(CO)CC3)c3nnc(-c4nnc(C(F)F)s4)n3c2)CC1 [Example 114, 3-(5-(difluoromethyl)-1,3,4-thiadiazol-2-yl)-8-(4-(hydroxymethyl)piperidin-1-yl)-N-(1-methylcyclopropyl)-[1,2,4]triazolo[4,3-a]pyridine-6-sulfonamide]
- IC50 (PARG; [2]): < 100 nM
- IC50 (PARG; PARG, TFMU-ADPr substrate): 1.57 nM
- IC50 (HCC1806): 462 nM
- IC50 (HCC1806; Homo sapiens, HCC1806, 168 h): 500 to 5000 nM
- IC50 [1, 3]: 17.5 nM
- IC50 [1, 4]: < 100 nM

Compound: O=S(=O)(NC1(CF)CC1)c1cc(N2CCC3(CCO3)CC2)c2nnc(-c3nnc(C(F)F)s3)n2c1 [Example 110, 3-(5-(difluoromethyl)-1,3,4-thiadiazol-2-yl)-N-(1-(fluoromethyl)cyclopropyl)-8-(1-oxa-7-azaspiro[3.5]nonan-7-yl)-[1,2,4]triazolo[4,3-a]pyridine-6-sulfonamide]
- IC50 (PARG; [2]): < 100 nM
- IC50 (PARG; PARG, TFMU-ADPr substrate): 14 nM
- IC50 (HCC1806): 850 nM
- IC50 (HCC1806; Homo sapiens, HCC1806, 168 h): 500 to 5000 nM
- IC50 [1, 3]: 89.5 nM
- IC50 [1, 4]: < 100 nM

Compound: CC(C)C(=O)N1CCN(c2cc(S(=O)(=O)NC3(C#N)COC3)cn3c(-c4nnc(C(F)F)s4)ncc23)CC1 [Example 148, N-(3-cyanooxetan-3-yl)-3-(5-(difluoromethyl)-1,3,4-thiadiazol-2-yl)-8-(4-isobutyrylpiperazin-1-yl)imidazo[1,5-a]pyridine-6-sulfonamide]
- IC50 (PARG; [2]): < 100 nM
- IC50 (PARG; PARG, TFMU-ADPr substrate): 2.04 nM
- IC50 (HCC1806): 8810 nM
- IC50 (HCC1806; Homo sapiens, HCC1806, 168 h): 5000 to 30000 nM
- IC50 [1, 3]: 8510 nM
- IC50 [1, 4]: > 1000 nM

Compound: COC1(C)CCN(c2cc(S(=O)(=O)NC3(CF)CC3)cn3c(-c4nnc(C(F)F)s4)nnc23)CC1 [Example 111, 3-(5-(difluoromethyl)-1,3,4-thiadiazol-2-yl)-N-(1-(fluoromethyl)cyclopropyl)-8-(4-methoxy-4-methylpiperidin-1-yl)-[1,2,4]triazolo[4,3-a]pyridine-6-sulfonamide]
- IC50 (PARG; [2]): < 100 nM
- IC50 (PARG; PARG, TFMU-ADPr substrate): 0.37 nM
- IC50 (HCC1806): 916 nM
- IC50 (HCC1806; Homo sapiens, HCC1806, 168 h): 500 to 5000 nM
- IC50 [1, 3]: 72.9 nM
- IC50 [1, 4]: < 100 nM

Compound: CC(C)C(=O)N1CCN(c2cc(S(=O)(=O)NC3(C)CC3)cn3c(-c4nnc(C(F)F)s4)nnc23)CC1 [Example 99, 3-(5-(difluoromethyl)-1,3,4-thiadiazol-2-yl)-8-(4-isobutyrylpiperazin-1-yl)-N-(1-methylcyclopropyl)-[1,2,4]triazolo[4,3-a]pyridine-6-sulfonamide]
- IC50 (PARG; [2]): < 100 nM
- IC50 (PARG; PARG, TFMU-ADPr substrate): 6.51 nM
- IC50 (HCC1806): 372 nM
- IC50 (HCC1806; Homo sapiens, HCC1806, 168 h): < 500 nM
- IC50 [1, 3]: 26.8 nM
- IC50 [1, 4]: < 100 nM

Compound: N#CC1(NS(=O)(=O)c2cc(N3CCOCC3)c3cnc(-c4nnc(C(F)F)s4)n3c2)CC1 [Example 67, N-(1-cyanocyclopropyl)-3-(5-(difluoromethyl)-1,3,4-thiadiazol-2-yl)-8-morpholinoimidazo[1,5-a]pyridine-6-sulfonamide]
- IC50 (PARG; [2]): < 100 nM
- IC50 (PARG; PARG, TFMU-ADPr substrate): 8.83 nM
- IC50 [1, 3]: 40.1 nM
- IC50 [1, 4]: < 100 nM

Compound: CC(C)C(=O)N1CCN(c2cc(S(=O)(=O)NC3(C(F)F)CC3)cn3c(-c4nnc(C(F)F)s4)ncc23)CC1 [Example 33, 3-(5-(difluoromethyl)-1,3,4-thiadiazol-2-yl)-N-(1-(difluoromethyl)cyclopropyl)-8-(4-isobutyrylpiperazin-1-yl)imidazo[1,5-a]pyridine-6-sulfonamide]
- IC50 (PARG; [2]): < 100 nM
- IC50 (PARG; PARG, TFMU-ADPr substrate): 6.52 nM
- IC50 [1, 3]: 155 nM
- IC50 [1, 4]: 100 to 500 nM

Compound: CC(C)C(=O)N1CCN(c2cc(S(=O)(=O)NC3(CF)CC3)cn3c(-c4nnc(C(F)F)s4)cnc23)CC1 [Example 14, 3-(5-(difluoromethyl)-1,3,4-thiadiazol-2-yl)-N-(1-(fluoromethyl)cyclopropyl)-8-(4-isobutyrylpiperazin-1-yl)imidazo[1,2-a]pyridine-6-sulfonamide]
- IC50 (PARG; [2]): < 100 nM
- IC50 (PARG; PARG, TFMU-ADPr substrate): 0.76 nM
- IC50 [1, 3]: 2.01 nM
- IC50 [1, 4]: < 100 nM

Compound: CC(C)C(=O)N1CCN(c2cc(S(=O)(=O)NC3(C#N)CC3)cn3c(-c4nnc(C(F)F)s4)ncc23)C[C@H]1C [Example 74, (R)-N-(1-cyanocyclopropyl)-3-(5-(difluoromethyl)-1,3,4-thiadiazol-2-yl)-8-(4-isobutyryl-3-methylpiperazin-1-yl)imidazo[1,5-a]pyridine-6-sulfonamide]
- IC50 (PARG; [2]): < 100 nM
- IC50 (PARG; PARG, TFMU-ADPr substrate): 6.61 nM
- IC50 [1, 3]: 1.5 nM
- IC50 [1, 4]: < 100 nM

Compound: CC(C)(F)C(=O)N1CCN(c2cc(S(=O)(=O)NC3(C#N)CC3)cn3c(-c4nnc(C(F)F)s4)ncc23)CC1 [Example 64, N-(1-cyanocyclopropyl)-3-(5-(difluoromethyl)-1,3,4-thiadiazol-2-yl)-8-(4-(2-fluoro-2-methylpropanoyl)piperazin-1-yl)imidazo[1,5-a]pyridine-6-sulfonamide]
- IC50 (PARG; [2]): < 100 nM
- IC50 (PARG; PARG, TFMU-ADPr substrate): 3.44 nM
- IC50 [1, 3]: 6.92 nM
- IC50 [1, 4]: < 100 nM

Compound: N#CC1(NS(=O)(=O)c2cc(N3CCC(F)(F)CC3)c3cnc(-c4nnc(C(F)F)s4)n3c2)CC1 [Example 40, N-(1-cyanocyclopropyl)-3-(5-(difluoromethyl)-1,3,4-thiadiazol-2-yl)-8-(4,4-difluoropiperidin-1-yl)imidazo[1,5-a]pyridine-6-sulfonamide]
- IC50 (PARG; [2]): < 100 nM
- IC50 (PARG; PARG, TFMU-ADPr substrate): 8.37 nM
- IC50 [1, 3]: 309 nM
- IC50 [1, 4]: 100 to 500 nM

Compound: N#CC1(NS(=O)(=O)c2cc(N3CCC(CO)CC3)c3cnc(-c4nnc(C(F)F)s4)n3c2)CC1 [Example 66, N-(1-cyanocyclopropyl)-3-(5-(difluoromethyl)-1,3,4-thiadiazol-2-yl)-8-(4-(hydroxymethyl)piperidin-1-yl)imidazo[1,5-a]pyridine-6-sulfonamide]
- IC50 (PARG; [2]): < 100 nM
- IC50 (PARG; PARG, TFMU-ADPr substrate): 2.89 nM
- IC50 [1, 3]: 18.2 nM
- IC50 [1, 4]: < 100 nM

Compound: CC1(C(=O)N2C3CC2CN(c2cc(S(=O)(=O)NC4(C#N)CC4)cn4c(-c5nnc(C(F)F)s5)ncc24)C3)CC1 [Example 87, N-(1-cyanocyclopropyl)-3-(5-(difluoromethyl)-1,3,4-thiadiazol-2-yl)-8-(6-(1-methylcyclopropane-1-carbonyl)-3,6-diazabicyclo[3.1.1]heptan-3-yl)imidazo[1,5-a]pyridine-6-sulfonamide]
- IC50 (PARG; [2]): < 100 nM
- IC50 (PARG; PARG, TFMU-ADPr substrate): 7.24 nM
- IC50 [1, 3]: 49.9 nM
- IC50 [1, 4]: < 100 nM

Compound: N#CC1(NS(=O)(=O)c2ccc3c(C4CCC5(CNC5)C4)nc(-c4nnc(C(F)F)s4)n3c2)CC1 (centres unmarked) [Example 26, N-(1-cyanocyclopropyl)-3-(5-(difluoromethyl)-1,3,4-thiadiazol-2-yl)-1-(2-azaspiro[3.4]octan-6-yl)imidazo[1,5-a]pyridine-6-sulfonamide]
- IC50 (PARG; [2]): < 100 nM
- IC50 (PARG; PARG, TFMU-ADPr substrate): 5.37 nM
- IC50 [1, 3]: 4690 nM
- IC50 [1, 4]: > 1000 nM

Compound: C[C@@H]1CN(c2cc(S(=O)(=O)NC3(C#N)CC3)cn3c(-c4nnc(C(F)F)s4)ncc23)CCN1C(=O)C1(C)CC1 [Example 62, (R)-N-(1-cyanocyclopropyl)-3-(5-(difluoromethyl)-1,3,4-thiadiazol-2-yl)-8-(3-methyl-4-(1-methylcyclopropane-1-carbonyl)piperazin-1-yl)imidazo[1,5-a]pyridine-6-sulfonamide]
- IC50 (PARG; [2]): < 100 nM
- IC50 (PARG; PARG, TFMU-ADPr substrate): 3.75 nM
- IC50 [1, 3]: 3.52 nM
- IC50 [1, 4]: < 100 nM

Compound: C[C@@H]1CN(c2cc(S(=O)(=O)NC3(C)CC3)cn3c(-c4nnc(C(F)F)s4)ncc23)CCN1C(=O)C1(C)CC1 [Example 71, (R)-3-(5-(difluoromethyl)-1,3,4-thiadiazol-2-yl)-8-(3-methyl-4-(1-methylcyclopropane-1-carbonyl)piperazin-1-yl)-N-(1-methylcyclopropyl)imidazo[1,5-a]pyridine-6-sulfonamide]
- IC50 (PARG; [2]): < 100 nM
- IC50 (PARG; PARG, TFMU-ADPr substrate): 1.32 nM
- IC50 [1, 3]: 0.67 nM
- IC50 [1, 4]: < 100 nM
